The source of these data is ChEMBL document CHEMBL1201862, “PubChem BioAssay data set” (2004).

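Briefly, cells in 96-well plates were exposed to five compound concentrations for 48 h, and endpoints were estimated by linear interpolation. GI50 is the concentration that inhibits growth by half.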 Calls of active or inactive are those of the source. Rule as the data show it: active = GI50 up to about 1.1 µM and inactive = higher. A value given as a limit tells only on which side of the number the result lay.

Among the test systems are 786-0; A549; ACHN; CAKI-1; CCRF-CEM; HCT-116; K562; MCF7; Malme-3M; NCI-H226; NCI-H460; OVCAR-5; SF-268; SK-MEL-28; SN12C; SNB-19; SNB-75; T47D; U-251; SF-539.
Assay in all cases: NCI tumour cell line growth inhibition, 48 h

As to `O=[N+]([O-])c1ccc(N/N=C2/CC3=C2CCCCCCCCCC3)c([N+](=O)[O-])c1`, the GI50 is 80.9 µM (inactive) in the experiment on 786-0; > 100 µM (inactive) in the experiment with A549; > 100 µM (inactive) in the experiment with ACHN; > 100 µM (inactive) in the experiment with CAKI-1; > 100 µM (inactive) in the experiment on CCRF-CEM; > 100 µM (inactive) in the experiment on HCT-116. Also, the GI50 in the experiment on K562, with MCF7, in the experiment with Malme-3M, with NCI-H226, in the experiment with NCI-H460 and in the experiment with OVCAR-5 was > 100 µM (inactive) in each case. For the same molecule, the GI50 with SF-268 was > 100 µM (inactive); in the experiment on SK-MEL-28, > 100 µM (inactive); in the experiment on SN12C, > 100 µM (inactive); in the experiment on SNB-19, > 100 µM (inactive); with SNB-75, 44.4 µM (inactive); with T47D it was > 100 µM (inactive). The GI50 in the experiment on U-251 was > 100 µM (inactive).
As to `CCOC(=O)C1=[N+]([O-])OC2=C(O)CCCC21` (stereo not given), the GI50 in the experiment on 786-0, with A549, in the experiment with ACHN, with CAKI-1, in the experiment on CCRF-CEM and in the experiment on HCT-116 was > 100 µM (inactive) throughout. Further, the GI50 with K562, in the experiment with MCF7, in the experiment with Malme-3M, in the experiment with NCI-H226, with NCI-H460 and with OVCAR-5 was > 100 µM (inactive) in each case. For the same molecule, the GI50 with SF-268, with SK-MEL-28, in the experiment on SN12C, in the experiment with SNB-19, with SNB-75 and in the experiment on T47D was > 100 µM (inactive) throughout. The GI50 with U-251 was > 100 µM (inactive).
In the case of `Oc1nc(-c2ccc3ccccc3c2)nc2ccccc12`, the GI50 in the experiment with 786-0 is 6.89 µM (inactive); with A549, 26.9 µM (inactive); with ACHN it was 13.9 µM (inactive); in the experiment with CAKI-1 it was 75 µM (inactive); in the experiment on HCT-116 it was 18.7 µM (inactive); in the experiment on K562, > 100 µM (inactive). Besides, the GI50 in the experiment on MCF7 was 64.4 µM (inactive); in the experiment on Malme-3M it was 33.6 µM (inactive); in the experiment with NCI-H226, 12.6 µM (inactive); in the experiment with NCI-H460, 21.9 µM (inactive); with OVCAR-5, 35.2 µM (inactive); in the experiment with SF-268, 26.3 µM (inactive). In addition, the GI50 is > 100 µM (inactive) in the experiment on SK-MEL-28; 54.1 µM (inactive) in the experiment with SN12C; 19.1 µM (inactive) with SNB-19; 4.53 µM (inactive) in the experiment on SNB-75; 64 µM (inactive) in the experiment on T47D; 25.5 µM (inactive) in the experiment with U-251.
Consider `CC1(C)CC(=O)C(=CNc2nc(-c3ccccc3)cs2)C(=O)C1`, for which the GI50 with 786-0 is > 100 µM (inactive); with A549, 49 µM (inactive); in the experiment with ACHN, 40.5 µM (inactive); in the experiment with HCT-116, > 100 µM (inactive); with MCF7, 29.2 µM (inactive); with NCI-H226, 29 µM (inactive). Further, the GI50 in the experiment with NCI-H460 is 30.7 µM (inactive); with OVCAR-5, > 100 µM (inactive); in the experiment on SF-539 it was 26.4 µM (inactive); in the experiment with SK-MEL-28, 26.7 µM (inactive); with SN12C, 39.2 µM (inactive); in the experiment with SNB-19, 71.4 µM (inactive). Besides, the GI50 was 33.7 µM (inactive) in the experiment on SNB-75, 32.7 µM (inactive) in the experiment with T47D and 29.3 µM (inactive) in the experiment on U-251.
Take `CCOc1ccc(N/C(=C(/C(Cl)=C(/Cl)Nc2ccccc2)[N+](=O)[O-])n2nnc3ccccc32)cc1`: the GI50 is 22.2 µM (inactive) with 786-0; 29.1 µM (inactive) with A549; 25.8 µM (inactive) in the experiment with ACHN; 23.5 µM (inactive) with CAKI-1; 22.8 µM (inactive) in the experiment with HCT-116; 28.8 µM (inactive) in the experiment on K562. For the same molecule, the GI50 was 35.7 µM (inactive) in the experiment on MCF7; 21.9 µM (inactive) with Malme-3M; 40.1 µM (inactive) in the experiment with NCI-H226; 27 µM (inactive) with NCI-H460; 35.5 µM (inactive) in the experiment on OVCAR-5; 18.6 µM (inactive) with SF-268. The GI50 in the experiment on SK-MEL-28 is 22.8 µM (inactive); in the experiment on SN12C, 20.8 µM (inactive); with SNB-19, 30.1 µM (inactive); in the experiment with SNB-75, 57.1 µM (inactive); with T47D, 40.5 µM (inactive); with U-251 it was 18.2 µM (inactive).
On to `C#C[C@]1(O)CC[C@H]2[C@@H]3CCC4=C/C(=N/OCCN(C)C)CC[C@]4(C)[C@H]3CC[C@@]21C`, for which the GI50 in the experiment with 786-0 was 29.2 µM (inactive); in the experiment on A549, 31.7 µM (inactive); with ACHN it was 54.7 µM (inactive); in the experiment with CAKI-1 it was 78 µM (inactive); in the experiment on CCRF-CEM, 16.3 µM (inactive); in the experiment on HCT-116, 25.6 µM (inactive). In addition, the GI50 in the experiment with K562 is 6.82 µM (inactive); in the experiment on MCF7, 25.1 µM (inactive); with Malme-3M, 22.1 µM (inactive); in the experiment on NCI-H226, 27.3 µM (inactive); in the experiment on NCI-H460, 21.8 µM (inactive); with OVCAR-5, 56.8 µM (inactive). Also, the GI50 in the experiment on SF-268 is 49.5 µM (inactive); with SK-MEL-28 it was 51.5 µM (inactive); in the experiment with SN12C, 44.3 µM (inactive); with SNB-19, 27.9 µM (inactive); with SNB-75 it was 30.1 µM (inactive); in the experiment with T47D, > 100 µM (inactive). Besides, the GI50 in the experiment with U-251 was 33.6 µM (inactive).
Regarding `Nc1c2c(nc3cc(F)c(F)cc13)CCC2`, the GI50 in the experiment on 786-0 is 45.6 µM (inactive); in the experiment on A549, 42.2 µM (inactive); with ACHN it was 32.6 µM (inactive); in the experiment on CAKI-1, 47.5 µM (inactive); in the experiment on HCT-116 it was 38 µM (inactive); in the experiment on K562, 35.3 µM (inactive). Moreover, the GI50 in the experiment on MCF7 was 33.3 µM (inactive); with Malme-3M, 41.7 µM (inactive); in the experiment with NCI-H226 it was 33.3 µM (inactive); in the experiment on NCI-H460 it was 22.1 µM (inactive); in the experiment on OVCAR-5, 49.9 µM (inactive); with SF-268, 58.5 µM (inactive). The GI50 was 46 µM (inactive) with SF-539; 52.7 µM (inactive) in the experiment on SK-MEL-28; 43.2 µM (inactive) in the experiment with SN12C; 48.6 µM (inactive) in the experiment on SNB-19; 42.5 µM (inactive) with SNB-75; 96.6 µM (inactive) with T47D. For the same molecule, in the experiment on U-251, the GI50 was 56.6 µM (inactive).
As to `COC(=O)CCC1(CCC(=O)OC)CCCCCCC(CCC(=O)OC)(CCC(=O)OC)C(=O)C1=O`, the GI50 was > 100 µM (inactive) in the experiment on 786-0; > 100 µM (inactive) in the experiment on A549; > 100 µM (inactive) in the experiment with ACHN; > 100 µM (inactive) in the experiment with CAKI-1; > 100 µM (inactive) in the experiment with HCT-116; 23.6 µM (inactive) in the experiment on K562. The GI50 was > 100 µM (inactive) with MCF7; > 100 µM (inactive) in the experiment with Malme-3M; > 100 µM (inactive) in the experiment with NCI-H226; 93.8 µM (inactive) in the experiment on NCI-H460; > 100 µM (inactive) in the experiment on OVCAR-5; > 100 µM (inactive) with SF-268. The GI50 is > 100 µM (inactive) in the experiment with SF-539; > 100 µM (inactive) with SK-MEL-28; > 100 µM (inactive) with SN12C; > 100 µM (inactive) in the experiment on SNB-19; 49.1 µM (inactive) with SNB-75; 20.5 µM (inactive) in the experiment on T47D. For the same molecule, the GI50 in the experiment on U-251 was > 100 µM (inactive).
For the molecule `COCCOCN(C(=O)C1=CCC2(CC1)OCCO2)c1ccccc1I`, the GI50 in the experiment with 786-0, in the experiment with A549, in the experiment with ACHN, in the experiment with CAKI-1, in the experiment on CCRF-CEM and in the experiment on HCT-116 was > 50 µM (inactive) each time. Moreover, the GI50 with MCF7, in the experiment with NCI-H226, with NCI-H460, with OVCAR-5, in the experiment on SK-MEL-28 and in the experiment on SN12C was > 50 µM (inactive) throughout. In addition, the GI50 in the experiment on SNB-19, in the experiment with SNB-75, in the experiment on T47D and in the experiment on U-251 was > 50 µM (inactive) each time.
With `C/C(=C\CO)CC/C=C(\C)CNc1ccc([N+](=O)[O-])cc1`, the GI50 is > 100 µM (inactive) with 786-0; 34.2 µM (inactive) with A549; 80.4 µM (inactive) in the experiment on ACHN; 80.5 µM (inactive) in the experiment on CAKI-1; 93.5 µM (inactive) in the experiment with HCT-116; 15 µM (inactive) in the experiment with K562. Further, the GI50 was 40.6 µM (inactive) in the experiment on MCF7; 8.2 µM (inactive) in the experiment with Malme-3M; 96.6 µM (inactive) in the experiment on NCI-H226; > 100 µM (inactive) in the experiment with NCI-H460; 41.7 µM (inactive) with OVCAR-5; 63.5 µM (inactive) with SF-268. In addition, the GI50 was 28.6 µM (inactive) in the experiment with SF-539; 28.4 µM (inactive) in the experiment with SK-MEL-28; 60.8 µM (inactive) with SN12C; 40.3 µM (inactive) in the experiment on SNB-19; 0.0219 µM (active) with SNB-75; 11.6 µM (inactive) in the experiment on T47D. In the experiment with U-251, the GI50 was 23.7 µM (inactive).
Consider `CC(C)(CO)N1C(=O)c2ccccc2C1(O)c1ccc(Cl)cc1` (stereo not given), for which the GI50 in the experiment with 786-0, in the experiment on A549, with ACHN, with CAKI-1, with CCRF-CEM and in the experiment on HCT-116 was > 100 µM (inactive) each time. In addition, the GI50 is > 100 µM (inactive) in the experiment with K562; > 100 µM (inactive) in the experiment with MCF7; > 100 µM (inactive) with Malme-3M; > 100 µM (inactive) with NCI-H226; 84.9 µM (inactive) in the experiment with NCI-H460; > 100 µM (inactive) in the experiment with OVCAR-5. Further, the GI50 in the experiment with SF-268 is > 100 µM (inactive); in the experiment on SK-MEL-28, > 100 µM (inactive); in the experiment on SN12C, > 100 µM (inactive); in the experiment with SNB-19, > 100 µM (inactive); with SNB-75, > 100 µM (inactive); with T47D it was 72.3 µM (inactive). Moreover, the GI50 with U-251 was > 100 µM (inactive).
